Experimental data: ChEMBL document CHEMBL3784953, “A homology modelling-driven study leading to the discovery of the first mouse trace amine-associated receptor 5 (TAAR5) antagonists” (Medchemcomm, 2016)

Legend:
[1] = biological target: T1, Trace amine-associated receptor 5 (Mus musculus) (UniProt Q5QD14); experiment: (§1) Agonist activity at mouse TAAR5 expressed in HEK293 cells assessed as increase in cAMP release after 30 mins by BRET assay relative to control; format: functional, cell-based
T1 sequence (whole entry): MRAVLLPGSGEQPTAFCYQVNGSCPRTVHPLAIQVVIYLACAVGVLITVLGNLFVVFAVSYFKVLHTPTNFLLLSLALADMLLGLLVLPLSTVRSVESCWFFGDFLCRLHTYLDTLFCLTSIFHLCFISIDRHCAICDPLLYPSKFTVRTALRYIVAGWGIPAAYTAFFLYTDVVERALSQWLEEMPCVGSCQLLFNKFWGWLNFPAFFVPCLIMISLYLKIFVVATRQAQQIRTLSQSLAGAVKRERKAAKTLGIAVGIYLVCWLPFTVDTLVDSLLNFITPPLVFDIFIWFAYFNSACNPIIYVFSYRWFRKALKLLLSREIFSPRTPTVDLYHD

[2] = biological target: T2, Trace amine-associated receptor 1 (Homo sapiens) (UniProt Q96RJ0); experiment: Agonist activity at human TAAR1 expressed in HEK293 cells assessed as increase in cAMP release after 30 mins by BRET assay; format: functional, cell-based
T2 sequence (whole entry): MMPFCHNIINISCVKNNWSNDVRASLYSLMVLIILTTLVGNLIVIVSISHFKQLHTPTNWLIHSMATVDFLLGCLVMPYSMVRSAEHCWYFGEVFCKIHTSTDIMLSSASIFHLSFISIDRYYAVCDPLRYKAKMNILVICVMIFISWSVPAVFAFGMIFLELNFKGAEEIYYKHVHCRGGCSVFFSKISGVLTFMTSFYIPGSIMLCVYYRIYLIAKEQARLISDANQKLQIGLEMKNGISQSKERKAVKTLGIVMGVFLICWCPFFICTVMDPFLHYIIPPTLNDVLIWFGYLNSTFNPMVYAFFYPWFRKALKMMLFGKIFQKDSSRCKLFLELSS

[3] = biological target: T3, Trace amine-associated receptor 5 (Mus musculus, UniProt Q5QD14); experiment: as §1; format: functional, cell-based
T3 sequence (Q5QD14 whole entry): T1 sequence (whole entry)

[4] = biological target: Trace amine-associated receptor 1 (Mus musculus, UniProt Q923Y8); experiment: Antagonist activity at mouse TAAR1 expressed in HEK293 cells assessed as inhibition of agonist induced cAMP release preincubated for 5 mins followed by addition of agonist by BRET assay; format: functional, cell-based
Sequence of Trace amine-associated receptor 1 (Q923Y8 whole entry): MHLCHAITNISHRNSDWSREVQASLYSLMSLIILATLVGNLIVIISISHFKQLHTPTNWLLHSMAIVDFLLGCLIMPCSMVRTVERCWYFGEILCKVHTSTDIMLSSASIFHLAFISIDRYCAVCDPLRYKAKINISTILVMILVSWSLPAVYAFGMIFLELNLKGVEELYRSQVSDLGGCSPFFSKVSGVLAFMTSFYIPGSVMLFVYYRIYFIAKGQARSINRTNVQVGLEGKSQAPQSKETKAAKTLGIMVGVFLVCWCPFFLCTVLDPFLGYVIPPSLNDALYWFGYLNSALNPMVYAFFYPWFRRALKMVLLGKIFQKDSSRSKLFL

[5] = biological target: T3, Trace amine-associated receptor 5; experiment: Antagonist activity at mouse TAAR5 expressed in HEK293 cells assessed as inhibition of agonist induced cAMP release preincubated for 5 mins followed by addition of agonist by BRET assay; format: functional, cell-based
Mus musculus = species on record: Mus musculus; experiment: Selectivity ratio of IC50 for mouse TAAR1 to IC50 for mouse TAAR5

Structure (SMILES) | IC50 [4] | IC50 [5] | also measured
NCCc1ccc(Oc2ccc(O)cc2)c(I)c1 |  |  | fold change (FC) [1]: 2; fold change (FC) [2]: 16
CN(C)C [TRIMETHYLAMMONIUM] |  |  | EC50 [3]: 2.1 µM
COc1ccccc1N1CCN(CC2CCC(c3ccccc3)(c3ccccc3)O2)CC1 (stereo not drawn) | > 100 µM | 4.8 µM | Ratio IC50 (Mus musculus): > 20
COc1ccccc1OCCNCC1CCC(c2ccccc2)(c2ccccc2)O1 (stereo not drawn) | > 100 µM | 29 µM | 
